Data on 23 molecules can be found in patent publication US11236087B2, “Highly active pyrazolo-piperidine substituted indole-2-carboxamides active against the hepatitis B virus (HBV)” (AiCuris GmbH & Co. KG, priority 2017, dated 2022).

For orientation: IC50 means the point on the concentration scale where inhibition reaches its midpoint. Broadly, the EC50 is the midpoint of the concentration-response curve. One may read the CC50 as the concentration giving 50% cytotoxicity. A high value points to lower toxicity to the cells.

The target in one series is T1, HBV core protein (UniProt P03146).
T1 construct: fused on or other part: BODIPY-FL maleimide label on the C-terminal Cys150
The series is described as follows: Biochemical capsid assembly assay (fluorescence quenching). Particulars: read-out: Assembly Activity (IC50); BODIPY-FL labelled core protein, 300 μM NaCl, read 6 min after start. Also noted: species or system hepatitis B virus. In short, it runs like this:
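Assembly-induced fluorescence quenching (477/525 nm) was measured 6 min after NaCl addition ([…]), against 2.5 M and 0 M NaCl controls. The labelled C150 core dimer (truncated at 149) at 1.0-2.0 μM in HEPES pH 7.5 was tested with eight half-log compound dilutions, top 100, 31.6 or 10 μM. EC50 was obtained by non-linear fit from triplicates run three times.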

The test system of another series is HBV. The series is described as follows: Determination of HBV DNA from the supernatants of HepAD38 cells (anti-HBV activity). It counts as cell-based, hepatitis B virus. The settings on record: Hepatitis B virus, 144 h; HBV DNA in HepAD38 supernatant, day 6, qPCR; read-out: Cell Activity (EC50). The procedure, abridged:
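Supernatant viral DNA was measured by LightCycler qPCR, calibrated with pCH-9/3091 plasmid, 6 days after tetracycline-free HepAD38 cultures received half-log serial compound dilutions; untreated and tetracycline-treated cells served as controls; EC50 was fitted by non-linear regression.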
(Quantitative PCR measures a nucleic acid by following its amplification.)

Series [1] in a line: Cell viability assay (AlamarBlue) in HepAD38 cells. The settings on record: human.

T1 sequence (P03146 whole entry, looked up, the tested form may be a part): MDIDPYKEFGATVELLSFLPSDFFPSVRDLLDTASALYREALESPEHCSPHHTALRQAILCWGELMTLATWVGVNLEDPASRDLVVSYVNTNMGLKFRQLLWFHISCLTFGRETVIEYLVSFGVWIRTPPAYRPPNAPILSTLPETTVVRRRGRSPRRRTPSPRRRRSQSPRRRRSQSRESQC

In the case of `COCC1(N(C)C(=O)c2n[nH]c3c2CN(C(=O)c2cc4c(F)c(F)cc(F)c4[nH]2)CC3)CC1` [Example 307, N-[1-(methoxymethyl)cyclopropyl]-N-methyl-5-(4,5,7-trifluoro-1H-indole-2-carbonyl)-1H,4H,5H,6H,7H-pyrazolo[4,3-c]pyridine-3-carboxamide], the IC50 on HBV core protein was below 5 µM. Also, the concentration for a half-maximal effect (EC50) in the series with HBV is below 1 µM. Also, the CC50 at 6 days in series [1] was above 10 µM.

In the case of `COCC1(N(C)C(=O)c2n[nH]c3c2CN(C(=O)c2cc4cccc(F)c4[nH]2)CC3)CC1` [Example 308, 5-(7-fluoro-1H-indole-2-carbonyl)-N-[1-(methoxymethyl)cyclopropyl]-N-methyl-1H,4H,5H,6H,7H-pyrazolo[4,3-c]pyridine-3-carboxamide], the IC50 on HBV core protein was below 5 µM. Also, the EC50 with HBV is below 1 µM. Also, the CC50 at 6 days in series [1] was above 10 µM.

On to `COCC1(N(C)C(=O)c2n[nH]c3c2CN(C(=O)c2cc4cc(F)cc(F)c4[nH]2)CC3)CC1` [Example 309, 5-(5,7-difluoro-1H-indole-2-carbonyl)-N-[1-(methoxymethyl)cyclopropyl]-N-methyl-1H,4H,5H,6H,7H-pyrazolo[4,3-c]pyridine-3-carboxamide], for which, on HBV core protein, the IC50 was below 5 µM. The EC50 in the series with HBV was below 1 µM. The same molecule registered a CC50 at 6 days in series [1] above 10 µM.

Take `CN(C(=O)c1n[nH]c2c1CN(C(=O)c1cc3ccccc3[nH]1)CC2)C1(C(F)(F)F)CC1` [Example 310, 5-(1H-indole-2-carbonyl)-N-methyl-N-[1-(trifluoromethyl)cyclopropyl]-1H,4H,5H,6H,7H-pyrazolo[4,3-c]pyridine-3-carboxamide]: the IC50 on HBV core protein was below 100 µM. Also, the EC50 in the series on HBV lay in the range of 1 to 25 µM. In series [1], the CC50 at 6 days was above 10 µM.

Consider `CN(C(=O)c1n[nH]c2c1CN(C(=O)c1cc3ccccc3[nH]1)CC2)C1(c2ccccn2)CC1` [Example 311, 5-(1H-indole-2-carbonyl)-N-methyl-N-[1-(pyridin-2-yl)cyclopropyl]-1H,4H,5H,6H,7H-pyrazolo[4,3-c]pyridine-3-carboxamide], for which the IC50 on HBV core protein is below 5 µM. Moreover, the EC50 in the series on HBV is below 1 µM. Moreover, the cytotoxic concentration (CC50) at 6 days in series [1] is above 10 µM.

As for `C#CCN(C)C(=O)c1n[nH]c2c1CN(C(=O)c1cc3ccccc3[nH]1)CC2` [Example 312, 5-(1H-indole-2-carbonyl)-N-methyl-N-(prop-2-yn-1-yl)-1H,4H,5H,6H,7H-pyrazolo[4,3-c]pyridine-3-carboxamide], the IC50 at HBV core protein is below 5 µM. For the same molecule, the EC50 in the series with HBV was below 1 µM. Moreover, in series [1], the CC50 at 6 days was above 10 µM.

As for `COCC1(N(CC(F)(F)F)C(=O)c2n[nH]c3c2CN(C(=O)c2cc4ccccc4[nH]2)CC3)CC1` [Example 313, 5-(1H-indole-2-carbonyl)-N-[1-(methoxymethyl)cyclopropyl]-N-(2,2,2-trifluoroethyl)-1H,4H,5H,6H,7H-pyrazolo[4,3-c]pyridine-3-carboxamide], the IC50 on HBV core protein was below 5 µM. Further, the EC50 with HBV is below 1 µM. The same molecule came in with a CC50 at 6 days in series [1] above 10 µM.

Take `C#CCOCC1(N(C)C(=O)c2n[nH]c3c2CN(C(=O)c2cc4ccccc4[nH]2)CC3)CC1` [Example 315, 5-(1H-indole-2-carbonyl)-N-methyl-N-{1-[(prop-2-yn-1-yloxy)methyl]cyclopropyl}-1H,4H,5H,6H,7H-pyrazolo[4,3-c]pyridine-3-carboxamide]: the IC50 on HBV core protein is below 5 µM. Besides, the EC50 with HBV was below 1 µM. In series [1], this molecule returned a CC50 at 6 days above 10 µM.

Turning to `CN(Cc1cn(C)nn1)C(=O)c1n[nH]c2c1CN(C(=O)c1cc3ccccc3[nH]1)CC2` [Example 316, 5-(1H-indole-2-carbonyl)-N-methyl-N-[(1-methyl-1H-1,2,3-triazol-4-yl)methyl]-1H,4H,5H,6H,7H-pyrazolo[4,3-c]pyridine-3-carboxamide], the IC50 on HBV core protein was below 5 µM. For the same molecule, in the series on HBV, the EC50 is 1 to 25 µM. Besides, in series [1], the CC50 at 6 days was above 10 µM.

Regarding `C=Cc1scnc1-c1n[nH]c2c1CN(C(=O)c1cc3ccccc3[nH]1)CC2` [Example 317, 2-[3-(5-ethenyl-1,3-thiazol-4-yl)-1H,4H,5H,6H,7H-pyrazolo[4,3-c]pyridine-5-carbonyl]-1H-indole], the IC50 on HBV core protein was below 5 µM. Also, the EC50 in the series with HBV was below 1 µM. Besides, in series [1], the CC50 at 6 days is above 10 µM.

In the case of `CN(C(=O)c1n[nH]c2c1CN(C(=O)c1cc3ccccc3[nH]1)CC2)C1(COC(F)F)CC1` [Example 318, N-{1-[(difluoromethoxy)methyl]cyclopropyl}-5-(1H-indole-2-carbonyl)-N-methyl-1H,4H,5H,6H,7H-pyrazolo[4,3-c]pyridine-3-carboxamide], at HBV core protein, the IC50 was below 5 µM. The EC50 in the series on HBV is below 1 µM. Also, the CC50 at 6 days in series [1] is above 10 µM.

`CN(C(=O)c1[nH]nc2c1CN(C(=O)c1cc3c(F)cccc3[nH]1)CC2)C1CC1` [Example 322, N-cyclopropyl-5-(4-fluoro-1H-indole-2-carbonyl)-N-methyl-2H,4H,5H,6H,7H-pyrazolo[4,3-c]pyridine-3-carboxamide]: the IC50 on HBV core protein is below 5 µM. Moreover, the EC50 with HBV is below 1 µM. In addition, in series [1], the CC50 at 6 days is above 10 µM.

On to `CN(C(=O)c1[nH]nc2c1CN(C(=O)c1cc3c(F)cc(F)cc3[nH]1)CC2)C1CC1` [Example 323, N-cyclopropyl-5-(4,6-difluoro-1H-indole-2-carbonyl)-N-methyl-2H,4H,5H,6H,7H-pyrazolo[4,3-c]pyridine-3-carboxamide], for which the IC50 at HBV core protein was below 5 µM. Besides, the EC50 in the series on HBV was below 1 µM. In series [1], this molecule yielded a CC50 at 6 days above 10 µM.

Take `CN(C(=O)c1[nH]nc2c1CN(C(=O)c1cc3c(Cl)c(F)ccc3[nH]1)CC2)C1CC1` [Example 324, 5-(4-chloro-5-fluoro-1H-indole-2-carbonyl)-N-cyclopropyl-N-methyl-2H,4H,5H,6H,7H-pyrazolo[4,3-c]pyridine-3-carboxamide]: the IC50 on HBV core protein is below 5 µM. Besides, the EC50 in the series on HBV is below 1 µM. Besides, the CC50 at 6 days in series [1] was above 10 µM.

For the molecule `CN(C(=O)c1[nH]nc2c1CN(C(=O)c1cc3ccc(Cl)cc3[nH]1)CC2)C1CC1` [Example 325, 5-(6-chloro-1H-indole-2-carbonyl)-N-cyclopropyl-N-methyl-2H,4H,5H,6H,7H-pyrazolo[4,3-c]pyridine-3-carboxamide], the IC50 at HBV core protein is below 5 µM. The EC50 in the series with HBV was below 1 µM. This molecule returned a half-maximal cytotoxic concentration (CC50) at 6 days in series [1] above 10 µM.

For `CN(C(=O)c1[nH]nc2c1CN(C(=O)c1cc3c(Cl)cccc3[nH]1)CC2)C1CC1` [Example 326, 5-(4-chloro-1H-indole-2-carbonyl)-N-cyclopropyl-N-methyl-2H,4H,5H,6H,7H-pyrazolo[4,3-c]pyridine-3-carboxamide], the IC50 at HBV core protein is below 5 µM. Also, in the series with HBV, the EC50 was below 1 µM. This molecule gave a CC50 at 6 days in series [1] above 10 µM.

As to `Cc1cc(F)cc2[nH]c(C(=O)N3CCc4n[nH]c(C(=O)N(C)C5CC5)c4C3)cc12` [Example 327, N-cyclopropyl-5-(6-fluoro-4-methyl-1H-indole-2-carbonyl)-N-methyl-2H,4H,5H,6H,7H-pyrazolo[4,3-c]pyridine-3-carboxamide], the IC50 on HBV core protein is below 5 µM. The EC50 with HBV was below 1 µM. Further, the CC50 at 6 days in series [1] was above 10 µM.

Consider `CCc1cccc2[nH]c(C(=O)N3CCc4n[nH]c(C(=O)N(C)C5CC5)c4C3)cc12` [Example 328, N-cyclopropyl-5-(4-ethyl-1H-indole-2-carbonyl)-N-methyl-2H,4H,5H,6H,7H-pyrazolo[4,3-c]pyridine-3-carboxamide], for which the IC50 on HBV core protein was below 5 µM. In the series on HBV, the EC50 is below 1 µM. For the same molecule, the CC50 at 6 days in series [1] is above 10 µM.

Turning to `CN(C(=O)c1[nH]nc2c1CN(C(=O)c1cc3cc(F)c(Cl)cc3[nH]1)CC2)C1CC1` [Example 329, 5-(6-chloro-5-fluoro-1H-indole-2-carbonyl)-N-cyclopropyl-N-methyl-2H,4H,5H,6H,7H-pyrazolo[4,3-c]pyridine-3-carboxamide], the IC50 on HBV core protein was below 5 µM. Also, the EC50 with HBV is below 1 µM. The CC50 at 6 days in series [1] was above 10 µM.

For `CCc1cc(F)cc2[nH]c(C(=O)N3CCc4n[nH]c(C(=O)N(C)C5CC5)c4C3)cc12` [Example 330, N-cyclopropyl-5-(4-ethyl-6-fluoro-1H-indole-2-carbonyl)-N-methyl-2H,4H,5H,6H,7H-pyrazolo[4,3-c]pyridine-3-carboxamide], on HBV core protein, the IC50 was below 5 µM. Also, the EC50 in the series on HBV was below 1 µM. Also, the CC50 at 6 days in series [1] is above 10 µM.

`CCc1cccc2[nH]c(C(=O)N3CCc4[nH]nc(C56CC(C5)C6)c4C3)cc12` [Example 331, 2-(3-{bicyclo[1.1.1]pentan-1-yl}-1H,4H,5H,6H,7H-pyrazolo[4,3-c]pyridine-5-carbonyl)-4-ethyl-1H-indole]: the IC50 on HBV core protein is below 5 µM. In addition, the EC50 in the series with HBV is below 1 µM. The same molecule came in with a CC50 at 6 days in series [1] above 10 µM.

Take `O=C(c1cc2c(F)c(F)ccc2[nH]1)N1CCc2[nH]nc(C34CC(C3)C4)c2C1` [Example 332, 2-(3-{bicyclo[1.1.1]pentan-1-yl}-1H,4H,5H,6H,7H-pyrazolo[4,3-c]pyridine-5-carbonyl)-4,5-difluoro-1H-indole]: the IC50 at HBV core protein was below 5 µM. Further, the EC50 in the series with HBV is below 1 µM. In series [1], this molecule came in with a CC50 at 6 days above 10 µM.

As for `O=C(c1cc2c(F)cc(F)cc2[nH]1)N1CCc2[nH]nc(C34CC(C3)C4)c2C1` [Example 333, 2-(3-{bicyclo[1.1.1]pentan-1-yl}-1H,4H,5H,6H,7H-pyrazolo[4,3-c]pyridine-5-carbonyl)-4,6-difluoro-1H-indole], the IC50 on HBV core protein was below 5 µM. For the same molecule, the EC50 in the series with HBV is below 1 µM. This molecule also had a CC50 at 6 days in series [1] above 10 µM.
